Experimental data as given in PubChem BioAssay AID330 (DTP/NCI, 2004).
Several values for one entry are separate records, joined by “and”; a condition that tells them apart may be missing. Equal values may be shown once. Toxic doses and inconclusive results are not listed. Square brackets hold non-standard residues; d marks the D form. Peptide text beside a SMILES is read from it. * marks the point of attachment. ξ: configuration not given here. Cbz = O=C(OCc1ccccc1)*; OBn = c1ccc(CO*)cc1; ξS = NC(CO)C(=O)O

Tested on: P388 leukemia ip, CD2F1 mice, survival T/C
Experiment: NCI In Vivo Anticancer Drug Screen. Data for tumor model P388 Leukemia (intraperitoneal) in CD2F1 (CDF1) mice
Conditions: endpoint: median survival time, higher = longer survival
How it was run: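 Mice carrying the transplanted tumor received test compound or vehicle. Survival was recorded in each group, and the value is the treated-group measurement divided by that of the vehicle-treated control group.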

[1] = dose: 50.0 mg/kg/injection, schedule: Q01DX005 (ip), vehicle: Klucel (hydroxypropylcellulose) (HPC)
[2] = dose: 100.0 mg/kg/injection, schedule: Q01DX005 (ip), vehicle: Klucel (hydroxypropylcellulose) (HPC)
[3] = dose: 200.0 mg/kg/injection, schedule: Q01DX005 (ip), vehicle: Klucel (hydroxypropylcellulose) (HPC)
[4] = dose: 100.0 mg/kg/injection, schedule: Q01DX009 (ip), vehicle: Klucel (hydroxypropylcellulose) (HPC)
[5] = dose: 200.0 mg/kg/injection, schedule: Q01DX009 (ip), vehicle: Klucel (hydroxypropylcellulose) (HPC)
[6] = dose: 50.0 mg/kg/injection, schedule: Q01DX005 (ip), vehicle: saline
[7] = dose: 100.0 mg/kg/injection, schedule: Q01DX005 (ip), vehicle: saline
[8] = dose: 200.0 mg/kg/injection, schedule: Q01DX005 (ip), vehicle: saline
[9] = dose: 25.0 mg/kg/injection, schedule: Q01DX005 (ip), vehicle: Klucel (hydroxypropylcellulose) (HPC)
[10] = dose: 50.0 mg/kg/injection, schedule: Q01DX009 (ip), vehicle: saline with Tween-80
[11] = dose: 100.0 mg/kg/injection, schedule: Q01DX009 (ip), vehicle: saline with Tween-80
[12] = dose: 200.0 mg/kg/injection, schedule: Q01DX009 (ip), vehicle: saline with Tween-80

## O=C(CNC(=O)C(CO)NC(=O)OCc1ccccc1)NCC(=O)OCc1ccccc1 (stereo not drawn) (Cbz-[ξS]-Gly-Gly-OBn)
[1]
  T/C: 101 % of control
[2]
  T/C: 99 % of control
[3]
  T/C: 97 % of control

## CCCCCCCC/C=C\CCCCCCCC(=O)OCCCCCCCCCCCCCC
dose: 12.5 mg/kg/injection, schedule: Q01DX001 (ip), vehicle: other
  T/C: 100 % of control
dose: 25.0 mg/kg/injection, schedule: Q01DX001 (ip), vehicle: other
  T/C: 90 % of control
dose: 50.0 mg/kg/injection, schedule: Q01DX001 (ip), vehicle: other
  T/C: 100 % of control

## CC(=O)NC(C)C(C)(C)O (centres undefined)
dose: 50.0 mg/kg/injection, schedule: Q01DX009 (ip), vehicle: saline
  T/C: 96 % of control
dose: 100.0 mg/kg/injection, schedule: Q01DX009 (ip), vehicle: saline
  T/C: 118 % of control
dose: 200.0 mg/kg/injection, schedule: Q01DX009 (ip), vehicle: saline
  T/C: 105 % of control
dose: 400.0 mg/kg/injection, schedule: Q01DX009 (ip), vehicle: saline
  T/C: 105 % of control

## C=CCN1C(=O)NC(=O)C(c2ccccc2)C1=O (centres undefined)
dose: 50.0 mg/kg/injection, schedule: Q01DX009 (ip), vehicle: Klucel (hydroxypropylcellulose) (HPC)
  T/C: 98 % of control
[4]
  T/C: 100 % of control
[5]
  T/C: 92 % of control

## Fc1c(F)c(C(F)(F)F)c(F)c(F)c1-n1nnc(-c2ccccc2)n1
[1]
  T/C: 99 % of control
[2]
  T/C: 96 % of control
[3]
  T/C: 100 % of control

## [CH3][Sn]([Cl])([Cl])[c]1ccccc1
dose: 1.56 mg/kg/injection, schedule: Q04DX003 (ip), vehicle: saline
  T/C: 114 % of control
dose: 3.12 mg/kg/injection, schedule: Q04DX003 (ip), vehicle: saline
  T/C: 109 % of control
dose: 6.25 mg/kg/injection, schedule: Q04DX003 (ip), vehicle: saline
  T/C: 106 % of control and 117 % of control

## CC1CCCC2C(c3ccccc3)OCN12 (centres undefined)
[6]
  T/C: 108 % of control
[7]
  T/C: 111 % of control
[8]
  T/C: 109 % of control

## C[S+](C)CCCNC(=O)c1csc(CCNC(=O)c2ccccc2)n1
dose: 12.5 mg/kg/injection, schedule: Q04DX003 (ip), vehicle: saline + alcohol
  T/C: 95 % of control
dose: 25.0 mg/kg/injection, schedule: Q04DX003 (ip), vehicle: saline + alcohol
  T/C: 100 % of control
dose: 50.0 mg/kg/injection, schedule: Q04DX003 (ip), vehicle: saline + alcohol
  T/C: 100 % of control

## N#Cc1c2ccc(N)cc2nc2cc(N)ccc12
dose: 60.0 mg/kg/injection, schedule: Q01DX005 (ip), vehicle: Klucel (hydroxypropylcellulose) (HPC)
  T/C: 100 % of control
dose: 120.0 mg/kg/injection, schedule: Q01DX005 (ip), vehicle: Klucel (hydroxypropylcellulose) (HPC)
  T/C: 105 % of control
dose: 240.0 mg/kg/injection, schedule: Q01DX005 (ip), vehicle: Klucel (hydroxypropylcellulose) (HPC)
  T/C: 118 % of control

## CC(=NCCCCN=C(C)c1cc(C)cc(Br)c1O)c1cc(C)cc(Br)c1O.[Co]
dose: 6.25 mg/kg/injection, schedule: Q01DX005 (ip), vehicle: Klucel (hydroxypropylcellulose) (HPC)
  T/C: 99 % of control and 104 % of control
dose: 12.5 mg/kg/injection, schedule: Q01DX005 (ip), vehicle: Klucel (hydroxypropylcellulose) (HPC)
  T/C: 100 % of control and 106 % of control
[9]
  T/C: 101 % of control and 109 % of control and 283 % of control
[1]
  T/C: 98 % of control and 109 % of control and 283 % of control
[2]
  T/C: 106 % of control and 97 % of control
[3]
  T/C: 97 % of control

## CCC12CN3CCc4c([nH]c5ccccc45)C(C(=O)OC)(c4cc5c(cc4OC)N(C)C4C(O)(C(=O)OC)C(OC(C)=O)C6(CC)C=CCN7CCC54C76)CC(C3=O)C1O2 (centres undefined)
dose: 4.0 mg/kg/injection, schedule: Q01DX001 (ip), vehicle: water
  T/C: 118 % of control
dose: 32.0 mg/kg/injection, schedule: Q01DX001 (ip), vehicle: water
  T/C: 116 % of control
dose: 64.0 mg/kg/injection, schedule: Q01DX001 (ip), vehicle: water
  T/C: 169 % of control

## O=C(O)Cc1ccc2c(c1)C(=O)c1ccccc1CO2
[10]
  T/C: 94 % of control
[11]
  T/C: 103 % of control
[12]
  T/C: 100 % of control

## CCN1C(=O)c2cccc([N+](=O)[O-])c2C1=O
[4]
  T/C: 101 % of control
[5]
  T/C: 104 % of control

## CC1/C(=N\N=C(N)N)c2ccccc2/C1=N/N=C(N)N (centres undefined)
dose: 25.0 mg/kg/injection, schedule: Q01DX001 (ip), vehicle: saline
  T/C: 106 % of control
dose: 50.0 mg/kg/injection, schedule: Q01DX001 (ip), vehicle: saline
  T/C: 102 % of control
dose: 100.0 mg/kg/injection, schedule: Q01DX001 (ip), vehicle: saline
  T/C: 99 % of control

## CC(=Nc1ccccc1)C1=C(O)C(CC(C)C)NC1=O (centres undefined)
[10]
  T/C: 103 % of control
[11]
  T/C: 99 % of control
[12]
  T/C: 100 % of control
dose: 400.0 mg/kg/injection, schedule: Q01DX009 (ip), vehicle: saline with Tween-80
  T/C: 110 % of control

## O=C1OCC/C1=C/O/C=C1\CCOC1=O
dose: 60.0 mg/kg/injection, schedule: Q01DX005 (ip), vehicle: saline with Tween-80
  T/C: 106 % of control
dose: 120.0 mg/kg/injection, schedule: Q01DX005 (ip), vehicle: saline with Tween-80
  T/C: 119 % of control

## O=P(N1CCCCCC1)(N1CC1)N1CC1
dose: 0.47 mg/kg/injection, schedule: Q01DX009 (ip), vehicle: saline
  T/C: 102 % of control
dose: 0.94 mg/kg/injection, schedule: Q01DX009 (ip), vehicle: saline
  T/C: 108 % of control
dose: 0.94 mg/kg/injection, schedule: Q04DX003 (ip), vehicle: saline
  T/C: 117 % of control
dose: 1.87 mg/kg/injection, schedule: Q01DX009 (ip), vehicle: saline
  T/C: 118 % of control
dose: 1.88 mg/kg/injection, schedule: Q01DX009 (ip), vehicle: saline
  T/C: 118 % of control
dose: 3.75 mg/kg/injection, schedule: Q04DX003 (ip), vehicle: saline
  T/C: 161 % of control
dose: 7.5 mg/kg/injection, schedule: Q04DX003 (ip), vehicle: saline
  T/C: 227 % of control
dose: 15.0 mg/kg/injection, schedule: Q04DX003 (ip), vehicle: saline
  T/C: 165 % of control
dose: 22.0 mg/kg/injection, schedule: Q04DX003 (ip), vehicle: saline
  T/C: 190 % of control
dose: 30.0 mg/kg/injection, schedule: Q04DX003 (ip), vehicle: saline
  T/C: 200 % of control
dose: 33.0 mg/kg/injection, schedule: Q04DX003 (ip), vehicle: saline
  T/C: 259 % of control

## Cc1ccc(N=Nc2c(-c3ccccc3)nn(C(=S)S)c2C)cc1
dose: 25.0 mg/kg/injection, schedule: Q04DX002 (ip), vehicle: Klucel (hydroxypropylcellulose) (HPC)
  T/C: 97 % of control
dose: 50.0 mg/kg/injection, schedule: Q04DX002 (ip), vehicle: Klucel (hydroxypropylcellulose) (HPC)
  T/C: 107 % of control
dose: 100.0 mg/kg/injection, schedule: Q04DX002 (ip), vehicle: Klucel (hydroxypropylcellulose) (HPC)
  T/C: 105 % of control
dose: 200.0 mg/kg/injection, schedule: Q04DX002 (ip), vehicle: Klucel (hydroxypropylcellulose) (HPC)
  T/C: 96 % of control
dose: 400.0 mg/kg/injection, schedule: Q04DX002 (ip), vehicle: Klucel (hydroxypropylcellulose) (HPC)
  T/C: 107 % of control

## O=C(c1ccc(Cl)cc1)n1c(Cl)c(/C=N\Nc2ccccc2[N+](=O)[O-])c2ccccc21
dose: 100.0 mg/kg/injection, schedule: Q04DX003 (ip), vehicle: saline with Tween-80
  T/C: 93 % of control
dose: 200.0 mg/kg/injection, schedule: Q04DX003 (ip), vehicle: saline with Tween-80
  T/C: 90 % of control
dose: 400.0 mg/kg/injection, schedule: Q04DX003 (ip), vehicle: saline with Tween-80
  T/C: 92 % of control

## CC12Cc3ccccc3CC1OCN1CN2COC2Cc3ccccc3CC21C (centres undefined)
[6]
  T/C: 105 % of control
[7]
  T/C: 98 % of control
[8]
  T/C: 90 % of control

## CCNCCNc1cc(O)c2c(c1O)C(=O)c1ccccc1C2=O
[9]
  T/C: 101 % of control and 102 % of control
[1]
  T/C: 110 % of control and 111 % of control
[2]
  T/C: 111 % of control and 112 % of control
[3]
  T/C: 122 % of control

## O=C(/C=N/O)Nc1ccccc1I
[1]
  T/C: 100 % of control
[2]
  T/C: 98 % of control
[3]
  T/C: 115 % of control

## Nc1nc(Cl)c(C=O)c(Cl)n1
dose: 12.5 mg/kg/injection, schedule: Q01DX009 (ip), vehicle: saline with Tween-80
  T/C: 96 % of control
dose: 25.0 mg/kg/injection, schedule: Q01DX009 (ip), vehicle: saline with Tween-80
  T/C: 100 % of control and 119 % of control
[10]
  T/C: 100 % of control and 120 % of control
[11]
  T/C: 115 % of control
